According to ChEMBL document CHEMBL1201862, “PubChem BioAssay data set” (2004):
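In this assay, cells in 96-well plates receive the compound at five concentrations for 48 hours. Endpoints are linearly interpolated between the surrounding concentrations. Here, GI50 denotes the concentration required for 50% inhibition of growth.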 Activity calls are given as the source filed them. Cut-off read from the data, not from the text of the source: active = GI50 up to about 1.1 µM and inactive = higher.

Key:
Experiment in all cases: NCI-60 cell line screen, 48 h
SF-295 = system: SF-295
NCI-H226 = system: NCI-H226
OVCAR-8 = system: OVCAR-8
MDA-MB-231 = system: MDA-MB-231
SK-MEL-5 = system: SK-MEL-5
HL-60 = system: HL-60
HCT-15 = system: HCT-15
ACHN = system: ACHN
SNB-19 = system: SNB-19
HCC 2998 = system: HCC 2998
OVCAR-3 = system: OVCAR-3
OVCAR-5 = system: OVCAR-5
MDA-MB-435 = system: MDA-MB-435
SNB-75 = system: SNB-75
M14 = system: M14
A498 = system: A498
SN12C = system: SN12C
MCF7 = system: MCF7
HOP-62 = system: HOP-62
Malme-3M = system: Malme-3M

Row | Compound | GI50 (SF-295) | GI50 (NCI-H226) | GI50 (OVCAR-8) | GI50 (MDA-MB-231) | GI50 (SK-MEL-5) | GI50 (HL-60) | GI50 (HCT-15) [µM] | GI50 (ACHN) | GI50 (SNB-19) | GI50 (HCC 2998) | GI50 (OVCAR-3) | GI50 (OVCAR-5) | GI50 (MDA-MB-435) | GI50 (SNB-75) | GI50 (M14) | GI50 (A498) | GI50 (SN12C) | GI50 (MCF7) | GI50 (HOP-62) | GI50 (Malme-3M)
1 | CCCCC1C=Cn2c(=O)oc3c(OC(C)C)c(C)c(O)c1c32 (stereo not given) | 0.982 µM (active) | 1.63 µM (inactive) | 1.73 µM (inactive) | 1.87 µM (inactive) | 2 µM (inactive) | 0.46 µM (active) | 0.357 | 0.413 µM (active) | 0.323 µM (active) | 2.96 µM (inactive) | 2.75 µM (inactive) | 4.78 µM (inactive) | 1.33 µM (inactive) | 0.466 µM (active) | 1.19 µM (inactive) | 0.0423 µM (active) | 1.37 µM (inactive) | 0.509 µM (active) | 0.0497 µM (active) | 1.47 µM (inactive)
2 | COc1cc(C2c3cc4c(cc3OC3(OC)COC(=O)C23)OCO4)cc(OC)c1OC(C)=O (stereo not given) | 0.321 µM (active) | 1.13 µM (inactive) | 2.52 µM (inactive) | 2.9 µM (inactive) | 0.726 µM (active) | 1.23 µM (inactive) | 0.798 | 1.32 µM (inactive) | 5.94 µM (inactive) | 2.75 µM (inactive) | 1.3 µM (inactive) | 4.6 µM (inactive) | 0.331 µM (active) | 0.384 µM (active) | 1.66 µM (inactive) | 3.27 µM (inactive) | 3.93 µM (inactive) | 1.07 µM (active) | 0.8 µM (active) | > 100 µM (inactive)
3 | CC(=O)OCC1OC(n2c3c(c(-c4ccco4)c(C#N)c2=S)CCCC3)C(OC(C)=O)C(OC(C)=O)C1OC(C)=O (stereo not given) | 13.7 µM (inactive) | 21.9 µM (inactive) | 31.6 µM (inactive) | 29.6 µM (inactive) | 16.3 µM (inactive) | > 10 µM (inactive) | > 31.6 | 17.8 µM (inactive) | 15.6 µM (inactive) | > 10 µM (inactive) | 23.2 µM (inactive) | > 31.6 µM (inactive) | > 100 µM (inactive) | 8.2 µM (inactive) | > 100 µM (inactive) | 12.1 µM (inactive) | > 31.6 µM (inactive) | > 76.2 µM (inactive) | 13.3 µM (inactive) | > 31.6 µM (inactive)
4 | CC1(C)COC2=C(C1)C(=O)c1ccccc1C2=O | 1.63 µM (inactive) | 2.24 µM (inactive) | 0.493 µM (active) | 2.04 µM (inactive) | 0.71 µM (active) | 0.583 µM (active) | 0.701 | 1.55 µM (inactive) | 1.97 µM (inactive) | 1.7 µM (inactive) | 0.75 µM (active) | 1.69 µM (inactive) | 0.195 µM (active) | 1.63 µM (inactive) | 1.61 µM (inactive) | 2.1 µM (inactive) | 1.36 µM (inactive) | 1.21 µM (inactive) | 1.99 µM (inactive) | 1.88 µM (inactive)
5 | Cn1c(CC(O)c2nc3ccccc3n2C)nc2ccccc21 (stereo not given) | > 100 µM (inactive) | > 48.3 µM (inactive) | > 27 µM (inactive) | > 34.8 µM (inactive) | > 32.8 µM (inactive) | 0.413 µM (active) | > 16 | > 23.6 µM (inactive) | > 36.6 µM (inactive) | > 100 µM (inactive) | > 13.1 µM (inactive) | > 59.7 µM (inactive) | > 18.5 µM (inactive) | > 100 µM (inactive) | > 29.2 µM (inactive) | > 32.9 µM (inactive) | > 36 µM (inactive) | > 15.9 µM (inactive) | > 12.3 µM (inactive) | > 21.1 µM (inactive)
6 | O=C1C=CC(=O)c2cc(Sc3ccccc3)c(=O)ccc21 | 8.36 µM (inactive) | 23.1 µM (inactive) | 15.7 µM (inactive) | 17.9 µM (inactive) | 14.2 µM (inactive) | 0.877 µM (active) | 13.5 | 9.89 µM (inactive) | 19.3 µM (inactive) | 16.3 µM (inactive) | 16.9 µM (inactive) | 19.6 µM (inactive) | 25.5 µM (inactive) | 8.2 µM (inactive) | 17.8 µM (inactive) | 16.2 µM (inactive) | 16.2 µM (inactive) | 5.83 µM (inactive) | 28.6 µM (inactive) | 12.7 µM (inactive)
7 | CCOC(=O)/C=C(/C(=O)OCC)n1ccc(=O)n(/C(=C/C(=O)OCC)C(=O)OCC)c1=O | 25.6 µM (inactive) | 8.07 µM (inactive) | 8.79 µM (inactive) | 16.6 µM (inactive) | 14.5 µM (inactive) | 0.859 µM (active) | 2.19 | 3 µM (inactive) | 20.3 µM (inactive) | 18.4 µM (inactive) | 6.19 µM (inactive) | 17.1 µM (inactive) | 8.34 µM (inactive) | 16.9 µM (inactive) | 4.98 µM (inactive) | 21.8 µM (inactive) | 4.43 µM (inactive) | 6.4 µM (inactive) | 25.9 µM (inactive) | 2.79 µM (inactive)
8 | CC(=O)c1cc2c(Br)cccc2oc1=O | > 100 µM (inactive) | > 100 µM (inactive) | > 100 µM (inactive) | > 100 µM (inactive) | > 100 µM (inactive) | > 100 µM (inactive) | > 100 | > 100 µM (inactive) | > 100 µM (inactive) | > 100 µM (inactive) | > 100 µM (inactive) | > 100 µM (inactive) | 54.5 µM (inactive) | > 100 µM (inactive) | > 100 µM (inactive) | > 100 µM (inactive) | > 100 µM (inactive) | > 100 µM (inactive) | > 100 µM (inactive) | > 100 µM (inactive)
9 | O=C(CN(c1ccc(S(=O)(=O)O)cc1)c1ccc(S(=O)(=O)O)cc1)Nn1cnc2ccc(S(=O)(=O)N(c3ccc(S(=O)(=O)O)cc3)c3ccc(S(=O)(=O)O)cc3)cc2c1=O | > 100 µM (inactive) | > 100 µM (inactive) | > 100 µM (inactive) | > 100 µM (inactive) | > 100 µM (inactive) | > 100 µM (inactive) | > 100 | > 100 µM (inactive) | > 100 µM (inactive) | > 100 µM (inactive) | > 100 µM (inactive) | > 100 µM (inactive) | > 100 µM (inactive) | > 100 µM (inactive) | > 100 µM (inactive) | > 100 µM (inactive) | > 100 µM (inactive) | > 100 µM (inactive) | > 100 µM (inactive) | > 100 µM (inactive)
10 | COC(=O)c1ccc(Nc2nc3[nH]cnc3c(=O)[nH]2)cc1 | > 100 µM (inactive) | > 100 µM (inactive) | > 100 µM (inactive) | > 100 µM (inactive) | > 100 µM (inactive) | > 100 µM (inactive) | > 100 | > 100 µM (inactive) | > 100 µM (inactive) | > 100 µM (inactive) | 54.6 µM (inactive) | > 100 µM (inactive) | 51.9 µM (inactive) | > 100 µM (inactive) | 59.2 µM (inactive) | > 100 µM (inactive) | > 100 µM (inactive) | > 100 µM (inactive) | > 100 µM (inactive) | > 100 µM (inactive)
11 | C[C@@H]1CC[C@@]2(C)[C@H](C)/C(=C\COC(=O)/C=C/c3ccc(O)c(O)c3)CC[C@@]12C [NAVICULYL CAFFEATE] | 8.87 µM (inactive) | 6.05 µM (inactive) | 9.42 µM (inactive) | 7.83 µM (inactive) | 5.15 µM (inactive) | 5.26 µM (inactive) | 4.1 | 4.19 µM (inactive) | 11.5 µM (inactive) | 7.67 µM (inactive) | 8.63 µM (inactive) | 18 µM (inactive) | 3.33 µM (inactive) | 11.9 µM (inactive) | 8.18 µM (inactive) | 12.9 µM (inactive) | 4.55 µM (inactive) | 2.83 µM (inactive) | 13.1 µM (inactive) | 14 µM (inactive)
12 | Cc1nn2c(=O)c([N+](=O)[O-])c(/C=C/c3ccccc3)nc2s1 | 17.3 µM (inactive) | 3.07 µM (inactive) | 2.17 µM (inactive) | 11.5 µM (inactive) | 3.69 µM (inactive) | 2.28 µM (inactive) | 3.08 | 5.32 µM (inactive) | 4.06 µM (inactive) | 8.13 µM (inactive) | 4.95 µM (inactive) | 4.68 µM (inactive) | 2 µM (inactive) | 2.93 µM (inactive) | 6.81 µM (inactive) | 10.4 µM (inactive) | 5.27 µM (inactive) | 1.61 µM (inactive) | 5.43 µM (inactive) | 13.3 µM (inactive)
13 | O=C1C(c2c(O)[nH]c3ccc(Br)cc23)=Nc2ccc(Br)cc21 | > 100 µM (inactive) | > 100 µM (inactive) | 27.1 µM (inactive) | 20 µM (inactive) | > 100 µM (inactive) | 86.5 µM (inactive) | 43 | > 100 µM (inactive) | 30.1 µM (inactive) | > 100 µM (inactive) | > 100 µM (inactive) | > 100 µM (inactive) | 40.7 µM (inactive) | 19.7 µM (inactive) | 97.9 µM (inactive) | > 100 µM (inactive) | 45.2 µM (inactive) | 13.6 µM (inactive) | 42.1 µM (inactive) | 46 µM (inactive)
14 | CN1Cc2c(ccc3c2OCO3)[C@@H]2[C@H](O)Cc3cc4c(cc3[C@@H]21)OCO4 | 2.14 µM (inactive) | 3.01 µM (inactive) | 3.62 µM (inactive) | 3.29 µM (inactive) | 1.41 µM (inactive) | 1.46 µM (inactive) | 2.02 | 11 µM (inactive) | 3.41 µM (inactive) | 2.11 µM (inactive) | 2.2 µM (inactive) | 12.1 µM (inactive) | 0.52 µM (active) | 2.62 µM (inactive) | 2.2 µM (inactive) | 2.17 µM (inactive) | 5.06 µM (inactive) | 2.11 µM (inactive) | 3.09 µM (inactive) | 4.63 µM (inactive)
